Test results from patent publication US20010051131A1, “METHODS FOR DELIVERING BIOACTIVE AGENTS” (priority 1996, published 2001).

Experiments:
glioblastoma mutiformae = type: in vivo
Description: An acoustically active composition is prepared in a 2 mL vial from an aqueous mixture of phosphatidylcholine vesicles filled with perfluorobutane gas in a manner as described above. The resulting compositions contains about 2×10^9 gas filled vesicles. The vial of gas filled vesicles will be diluted into a 100 mL volume of normal saline such that the final gas filled vesicle concentration is about 2×10^7 gas filled vesicles/mL.
The scalp of a patient suffering from glioblastoma mutiformae will be shaved prior to the procedure. The patient will receive an intravenous infusion of 200 mg/M^2 of Carmustine (BCNU) over a period of about 30 minutes. Fifteen minutes after initiating IV injection of Carmustine, IV infusion of the gas filled vesicle composition will be initiated at a rate of about 2 mL per minute (or about 4×10^7 gas filled vesicles per minute). One minute after initiation of infusion of gas filled vesicles, a 200-kilohertz ultrasound transducer will be turned on, and using an acoustic gel, it will be applied to the shaved area of the scalp. The transducer is focused on the glioblastoma. The energy of the transducer will be adjusted to a peak negative pressure of about 2.5 megaPascals and maintained as such for about 30 minutes (for about 15 minutes after infusion of Carmustine has ceased). The infusion of gas filled vesicles will then be terminated.

prostate cancer = assay: Delivery of a radiation sensitizer to treat prostate cancer with air-filled polylactic acid microspheres and ultrasound; details: 100 mg/m^2 IV over 1 hour, microspheres 5×10^7/minute, endorectal ultrasound 1.5 MegaPascals for 30 minutes

| Structure (SMILES) | tumor control (glioblastoma mutiformae; 200 mg/M^2 IV over about 30 minutes, gas filled vesicles about 2 mL per minute, 200-kilohertz ultrasound, 2.5 megaPascals) | delivery of the drug into the tumor tissue (glioblastoma mutiformae; in vivo, iv) | delivery of drug within the prostate gland (prostate cancer) | tumor control (prostate cancer; then radiation therapy) |
| --- | --- | --- | --- | --- |
| O=NN(CCCl)C(=O)NCCCl [Carmustine] | improved tumor control | enhanced delivery of the drug into the tumor tissue |  |  |
| CC(=O)O[C@H]1C(=O)[C@@]2(C)[C@H]([C@H](OC(=O)c3ccccc3)[C@]3(O)C[C@H](OC(=O)[C@H](O)[C@@H](NC(=O)c4ccccc4)c4ccccc4)C(C)=C1C3(C)C)[C@]1(OC(C)=O)CO[C@@H]1C[C@@H]2O [Paclitaxel] |  |  | increased delivery of drug within the prostate gland | Improved tumor control |
